CS(=O)(=O)c1cccc(C[C@H](NC(=O)c2c(Cl)cc3c(c2Cl)CCN(C(=O)c2ccc4ccoc4c2)C3)C(=O)O)c1
Details | solubility (mole fraction)
in PEG-400, 288.15 K | 0.0757
in PEG-400, 293.15 K | 0.0767
in PEG-400, 298.15 K | 0.0776
in PEG-400, 303.15 K | 0.0786
in PEG-400, 308.15 K | 0.0796

solubility (mole fraction)
Details | 288.15 K | 293.15 K | 298.15 K | 303.15 K | 308.15 K
in glycerin | 0.000104 | 0.000118 | 0.000133 | 0.000151 | 0.000167
in propylene glycol | 0.00102 | 0.00119 | 0.00138 | 0.00161 | 0.00183
in transcutol | 0.015 | 0.0159 | 0.0168 | 0.0178 | 0.0187
in water | 1.49e-06 | 1.85e-06 | 2.31e-06 | 2.79e-06 | 3.37e-06
